“Also recorded” adds a separate entry of the source. Where a name gives a salt, the structure may show the parent alone. Read-outs that look alike come from different tables or passages of the source. Each block holds one compound with its values, some of them ahead of it.
Legend:
[1] = test system: permanent middle cerebral artery occlusion; details: cited from earlier work
[2] = test system: temporary middle cerebral artery occlusion; details: cited from earlier work
NCCa-ATP channel [3] = target: T1, NCCa-ATP channel (Rattus norvegicus, UniProt Q09429); experiment: Patch clamp of NCCa-ATP channel in freshly isolated native reactive astrocytes; format: cell-based; details: for EC50: read-out: [ATP]1 EC50 (um)
T1 construct: endogenous in cells; host or cells: freshly isolated native reactive astrocytes (NRA/R1 astrocytes) from the hypoxic inner zone of the gliotic capsule in brain
Excerpt: The NCCa-ATP channel is a 35 pS cation channel that conducts all inorganic monovalent cations (Na^+, K^+, Cs^+, Li^+, Rb^+), but is impermeable to Ca^2+ and Mg^2+ (Chen and Simard, 2001). […] Studies using a variety of organic monovalent cations indicate that the channel has an equivalent pore radius of 0.41 nm.
The NCCa-ATP channel is believed to be composed of pore-forming and regulatory subunits. The regulatory subunit is sulfonylurea receptor 1 (SUR1), the same as that for KATP channels in pancreatic β cells (Chen et al., 2003), and so NCCa-ATP and pancreatic KATP channels have pharmacological profiles that resemble each other closely. […] Knockdown of SUR1 using antisense-oligodeoxynucleotide reduces SUR1 expression (Simard et al., 2006) and prevents expression of functional NCCa-ATP channels.

NCCa-ATP channel [4] = target: T1, NCCa-ATP channel; details: cited from earlier work
[5] = target: T2, SUR1-regulated NCCa-ATP channel (Homo sapiens, UniProt Q09428); experiment: Patch clamp of cultured human aortic endothelial cells after hypoxia; format: cell-based
T2 construct: cultured endothelial cells from human aorta (ScienCell, SanDiego CA) were also studied; host or cells: human aortic endothelial cells (HAEC) cultured under hypoxia (1% O2)
T2 sequence (Q09428 whole entry): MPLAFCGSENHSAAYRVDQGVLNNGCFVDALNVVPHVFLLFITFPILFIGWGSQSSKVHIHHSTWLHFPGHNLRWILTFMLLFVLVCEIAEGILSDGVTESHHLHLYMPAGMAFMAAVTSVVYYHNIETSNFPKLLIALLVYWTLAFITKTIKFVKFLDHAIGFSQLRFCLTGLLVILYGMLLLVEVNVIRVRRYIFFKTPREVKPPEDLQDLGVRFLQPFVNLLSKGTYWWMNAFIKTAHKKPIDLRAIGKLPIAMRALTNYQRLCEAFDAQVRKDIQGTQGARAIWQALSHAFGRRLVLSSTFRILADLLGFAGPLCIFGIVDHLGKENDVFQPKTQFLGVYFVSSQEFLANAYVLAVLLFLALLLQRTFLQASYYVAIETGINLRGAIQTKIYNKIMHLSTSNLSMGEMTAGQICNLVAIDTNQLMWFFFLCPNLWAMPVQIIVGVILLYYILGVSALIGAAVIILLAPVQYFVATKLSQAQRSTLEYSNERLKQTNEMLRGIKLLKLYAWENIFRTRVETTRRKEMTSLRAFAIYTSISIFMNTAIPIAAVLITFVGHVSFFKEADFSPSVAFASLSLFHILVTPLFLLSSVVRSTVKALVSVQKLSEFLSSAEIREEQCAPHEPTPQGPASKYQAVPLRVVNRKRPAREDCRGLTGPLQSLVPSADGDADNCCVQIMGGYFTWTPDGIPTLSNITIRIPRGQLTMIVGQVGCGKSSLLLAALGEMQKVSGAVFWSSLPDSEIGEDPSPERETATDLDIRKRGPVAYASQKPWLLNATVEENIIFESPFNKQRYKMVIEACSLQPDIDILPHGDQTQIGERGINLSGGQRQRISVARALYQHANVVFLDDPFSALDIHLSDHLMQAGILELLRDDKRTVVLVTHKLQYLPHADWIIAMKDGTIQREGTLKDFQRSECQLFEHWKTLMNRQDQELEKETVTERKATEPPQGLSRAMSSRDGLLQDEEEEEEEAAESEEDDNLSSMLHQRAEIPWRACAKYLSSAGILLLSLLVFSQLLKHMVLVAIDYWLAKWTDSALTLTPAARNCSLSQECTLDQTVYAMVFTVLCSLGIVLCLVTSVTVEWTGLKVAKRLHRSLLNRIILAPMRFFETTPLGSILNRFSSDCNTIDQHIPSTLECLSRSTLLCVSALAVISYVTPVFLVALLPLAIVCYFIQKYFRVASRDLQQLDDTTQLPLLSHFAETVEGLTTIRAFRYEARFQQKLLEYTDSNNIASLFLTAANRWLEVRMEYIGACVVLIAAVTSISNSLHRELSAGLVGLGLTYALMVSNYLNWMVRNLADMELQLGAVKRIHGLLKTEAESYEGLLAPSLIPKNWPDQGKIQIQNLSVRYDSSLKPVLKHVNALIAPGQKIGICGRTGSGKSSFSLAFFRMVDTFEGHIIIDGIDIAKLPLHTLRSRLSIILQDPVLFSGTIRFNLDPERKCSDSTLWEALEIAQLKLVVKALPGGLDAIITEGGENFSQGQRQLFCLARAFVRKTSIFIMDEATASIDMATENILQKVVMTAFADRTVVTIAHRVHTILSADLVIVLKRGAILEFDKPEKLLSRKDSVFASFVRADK
T2 sequence (Q8TD43 whole entry partner): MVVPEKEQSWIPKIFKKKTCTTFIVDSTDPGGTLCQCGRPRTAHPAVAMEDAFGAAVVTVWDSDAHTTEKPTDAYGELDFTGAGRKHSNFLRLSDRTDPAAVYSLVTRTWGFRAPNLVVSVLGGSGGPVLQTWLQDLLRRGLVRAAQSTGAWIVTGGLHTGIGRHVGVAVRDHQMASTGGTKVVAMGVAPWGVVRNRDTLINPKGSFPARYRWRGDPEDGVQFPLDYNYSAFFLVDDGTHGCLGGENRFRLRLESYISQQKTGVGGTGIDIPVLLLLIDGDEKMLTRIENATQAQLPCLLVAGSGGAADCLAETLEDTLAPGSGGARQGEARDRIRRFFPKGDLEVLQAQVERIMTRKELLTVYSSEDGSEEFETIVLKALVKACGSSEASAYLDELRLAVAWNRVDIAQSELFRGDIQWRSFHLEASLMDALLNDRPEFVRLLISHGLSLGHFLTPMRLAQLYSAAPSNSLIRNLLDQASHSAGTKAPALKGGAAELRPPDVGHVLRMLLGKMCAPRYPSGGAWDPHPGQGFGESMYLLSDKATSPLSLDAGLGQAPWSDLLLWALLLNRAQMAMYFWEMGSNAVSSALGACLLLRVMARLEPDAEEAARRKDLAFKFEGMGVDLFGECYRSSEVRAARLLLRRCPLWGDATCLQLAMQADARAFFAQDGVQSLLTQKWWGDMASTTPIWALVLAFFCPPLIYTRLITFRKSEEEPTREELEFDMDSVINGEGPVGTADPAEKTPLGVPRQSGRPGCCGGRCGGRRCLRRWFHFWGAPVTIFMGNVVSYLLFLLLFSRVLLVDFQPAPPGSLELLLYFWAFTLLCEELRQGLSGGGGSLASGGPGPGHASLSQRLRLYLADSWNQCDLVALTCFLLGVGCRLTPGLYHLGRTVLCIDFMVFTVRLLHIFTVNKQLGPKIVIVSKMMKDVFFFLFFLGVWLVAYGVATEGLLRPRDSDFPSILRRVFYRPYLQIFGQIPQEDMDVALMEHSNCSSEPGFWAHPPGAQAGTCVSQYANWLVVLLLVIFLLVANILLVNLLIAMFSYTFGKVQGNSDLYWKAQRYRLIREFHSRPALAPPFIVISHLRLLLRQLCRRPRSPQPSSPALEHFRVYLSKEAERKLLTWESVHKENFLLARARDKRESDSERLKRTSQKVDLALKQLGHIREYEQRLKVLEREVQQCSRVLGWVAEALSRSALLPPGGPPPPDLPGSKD
Excerpt: In addition to studying freshly isolated capillary endothelial cells from rat spinal cord, cultured endothelial cells from human aorta (ScienCell, SanDiego CA) were also studied. The purpose with these studies was to investigate whether hypoxia/ischemia can lead to up-regulation of the SUR1-regulated NCCa-ATP channels in endothelial cells, a finding that was previously reported for astrocytes and neurons (Chen et al., 2003; Simard et al., 2006), but not endothelial cells. Endothelial cells were cultured under normoxic (room air) and hypoxic (1% 02) conditions. Cells cultured under both conditions were immunolabeled for SUR1, the regulatory subunit of both KATP and NCCa-ATP channels.
The diazoxide-induced current (difference current in FIG. 15A) reversed at E(K) consistent with an SUR1-regulated KATP channel current.
Inside-out patches from cells maintained under hypoxic conditions were also studied. […]
Patch clamp of endothelial cells was performed using a nystatin-perforated patch technique, to maintain the metabolic integrity of the cells. The identity of the activated channel can be assessed by measurement of the “reversal potential”, the potential at which an ion channel current reverses from inward to outward. […]

[6] = target: receptor-mediated Ca2+ entry; details: cited from earlier work
global cerebral ischemia = details: in vivo; cited from earlier work
[7] = test system: freshly isolated reactive astrocytes; details: cited from earlier work; for Cell blebbing: glibenclamide with 1 mM Na azide, diazoxide alone without ATP depletion
[8] = test system: isolated retina of chick embryo; details: glucose/oxygen deprivation or excitotoxic conditions; cited from earlier work
recombinant MMP = experiment: Zymography of gelatinase activity of recombinant MMP; format: biochemical; details: glibenclamide 10 μM; MMP-inhibitor II 300 nM
Excerpt: In stroke, hemorrhagic conversion has been attributed to activation of matrix metalloproteinases (MMP) (Gidday et al., 2005; Justicia et al., 2003; Lorenzl et al., 2003; Romanic et al., 1998). […] This was studied directly using zymography of recombinant MMPs.

[9] = test system: cervical spinal cord contusion injury; experiment: Rat cervical hemi-cord contusion spinal cord injury model; format: in vivo
Excerpt: The cervical contusion SCI model that is used is that of Soblosky et al. (2001). Adult female Long-Evans rats are anesthetized (Ketamine and Xylazine) and a hemilaminectomy is made at C4-5 to expose the dura. A hemi-cervical spinal cord contusion is created using a blunt force impactor (see details below “The model of contusion SCI”).
To generate the injury for the data shown here, the impactor was activated using a 10-gm weight dropped from 2.5 cm.
Animals were sacrificed at ¾ hr and 24 hr after contusion SCI (n=5 rats per group), they were perfused with heparinized saline to remove intravascular blood, and 5-mm segments of cord encompassing the lesion were homogenized and processed using Drabkin's reagent to convert hemoglobin to cyanomethemoglobin for spectrophotometric measurements (Choudhri et al., 1997).
Animals underwent the same SCI as above, and immediately after, were implanted with mini-osmotic pumps (Alzet 2002, 14 day pump, […]; Durect Corporation, Cupertino, CA) that delivered either saline or drug s.q.
Spinal cords were examined 24 hr after SCI. […] In other rats, […] sections of cord were harvested that encompassed the contusion site and we quantified the amount of blood present in tissues after removal of intravascular blood by perfusion at time of euthanasia (n=5-6 rats per group).
As previously described (Gensel et al., 2006), rats were placed in a glass cylinder to which they had not been previously exposed. A peanut butter treat was placed 8 inches above the floor, and the number of seconds spent with both front paws elevated above shoulder-height was counted during a 3-min period of observation.

NCCa-ATP channels = experiment: Nystatin-perforated patch clamp of hypoxic endothelial cells, current activated by Na+ azide; format: cell-based, human; details: 1 μM; hypoxic conditions
Protocol: Patch clamp of endothelial cells was performed using a nystatin-perforated patch technique, to maintain the metabolic integrity of the cells. The identity of the activated channel can be assessed by measurement of the “reversal potential”, the potential at which an ion channel current reverses from inward to outward. With physiologically relevant concentrations of ions intracellularly and extracellularly (high potassium inside, high sodium outside), the reversal potential can unambiguously distinguish between a K^+ channel current such as KATP, which reverses negative to −50 mV and a non-selective cation channel current such as NCCa-ATP, which reverses near 0 mV.
Channel activation was also studied upon induction by Na^+ azide, a […] that depletes cellular ATP (Chen and Simard, 2001).

[10] = test system: freshly isolated reactive astrocytes; details: 1 mM Na azide; 1 μM glibenclamide; cited from earlier work
[11] = test system: large MCA stroke associated with malignant cerebral edema; details: cited from earlier work
[12] = test system: stroke induced by thromboemboli; details: constant infusion 75-200 ng/h; cited from earlier work
transient focal ischemia = details: pre- or post-ischemic administration; cited from earlier work
permanent MCAO = details: given 30 min after initiation of permanent MCAO; cited from earlier work
[13] = after 6 h of vascular occlusion
[14] = Membrane Preparation derived from freshly isolated native reactive astrocytes

SMILES: COc1cc2c(cc1OC)C(C(C(=O)N(CCc1ccc(OC)c(OC)c1OC)CCc1ccc(OC)c(OC)c1OC)c1ccccc1)=NCC2 (racemic) [pinokalant, (R,S)-(3,4-dihydro-6,7-dimethoxy-isoquinoline-1-yl)-2-phenyl-N,N-di[2-(2,3,4-trimethoxyphenyl)ethyl]-acetamide]
Blood flow [1, 13]: significantly higher
Reduction of the volume of ATP-depleted and morphologically injured tissue (infarct core) [1, 13]: 60-70%
Decrease of ADC lesion volume ([1]; initial 6 h of vascular occlusion, untreated increased by approximately 50%): approximately 20%
DWI-derived infarct volume ([2]; 4 h after MCAO): significantly smaller
Neurological scores ([2]; at 24 h): significantly better
TTC-derived infarct volume ([2]; postmortem): significantly attenuated

Effect on channel (NCCa-ATP channel [3]; [14]): No channel effect
Effect on channel (NCCa-ATP channel [3]; Reactive Astrocytes): No channel effect
SMILES: Nc1ncnc2c1ncn2[C@@H]1O[C@H](COP(=O)(O)OP(=O)(O)O)[C@@H](O)[C@H]1O [ADP]
Effect on channel opening (NCCa-ATP channel [4]): unaffected

Effect on channel (NCCa-ATP channel [3]; [14]): No channel effect
Effect on channel (NCCa-ATP channel [3]; Reactive Astrocytes): No channel effect
SMILES: Nc1ncnc2c1ncn2[C@@H]1O[C@H](COP(=O)(O)O)[C@@H](O)[C@H]1O [AMP]
Effect on channel opening (NCCa-ATP channel [4]): unaffected

EC50 (NCCa-ATP channel [3]; [14]): 790 nM
EC50 (NCCa-ATP channel [3]; Reactive Astrocytes): 790 nM
Single channel openings in inside-out patches ([5]; 20 μM in the bath, hypoxic cells, Cs+ as cation): inhibited
SMILES: Nc1ncnc2c1ncn2[C@@H]1O[C@H](COP(=O)(O)OP(=O)(O)OP(=O)(O)O)[C@@H](O)[C@H]1O [ATP]
EC50 (NCCa-ATP channel [4]; read-out: Block of channel opening, EC50): 790 nM

SMILES: COc1ccc(CCCOC(Cn2ccnc2)c2ccc(OC)cc2)cc1 (stereo not drawn) [SKF 96365, 1-(beta-[3-(4-methoxy-phenyl)propoxy]-4-methoxyphenethyl)-1H-imidazole hydrochloride]
IC50 [6]: ~10000 nM

SMILES: COc1cc(CNC(=O)CCCC/C=C/C(C)C)ccc1O [capsaicin]
Electroencephalographic changes, hyperlocomotion and memory impairment induced by global ischemia (global cerebral ischemia): antagonize

SMILES: Oc1cc2c(cc1O)CN(C(=S)NCCc1ccc(Cl)cc1)CCC2 [capsazepine]
Effect on rimonabant-induced and capsaicin-induced neuroprotective effects (global cerebral ischemia): reversed

SMILES: CC1=NS(=O)(=O)c2cc(Cl)ccc2N1 [diazoxide]
Membrane current, reversing near 0 mV ([5]; cells maintained under hypoxic conditions): significantly increased; also recorded: activated an ohmic current
Block or opening of the NCCa-ATP channel (NCCa-ATP channel [4]): opened
Channel opening in the presence of ATP (NCCa-ATP channel [4]; in the presence of ATP): increased
Cell blebbing [7]: reproduced

SMILES: O=C(O)c1ccccc1Nc1cccc(C(F)(F)F)c1 [flufenamic acid]
Protection of retina against ischemic or excitotoxic insult [8]: protected

SMILES: COc1ccc(Cl)cc1C(=O)NCCc1ccc(S(=O)(=O)NC(=O)NC2CCCCC2)cc1 [glibenclamide]
Gelatinase activity (recombinant MMP): the same
Hemorrhage at the contusion site ([9]; 24 hr after SCI, 75 ng/hr s.q.): significantly reduced; also recorded: less prominent
Blood in 6-mm cord segment encompassing the contusion ([9]; 24 hr after SCI, 75 ng/hr s.q., vehicle 1.9±0.02): 0.9 ± 0.2 µL
Neurological function (rearing behavior) ([9]; 24 hr after injury, 3-min observation): significant neurological functional improvement; also recorded: significantly better; also recorded: improves neurological function
Ohmic current activated by Na+ azide-induced ATP depletion (NCCa-ATP channels): blocked
Membrane depolarization ([7]; cells exposed to Na+ azide to deplete ATP): blocks
Cell blebbing [7]: significantly reduces; also recorded: completely prevented; also recorded: blocked
Necrotic cell death induced by Na azide [10]: significantly reduced; also recorded: significant reduced
Reduction of mortality ([11]; constant infusion 75-200 ng/h): by half
7-day mortality ([11]; control rats 68%, n=29 in each group): 28%
Reduction of cerebral edema / ionic edema (excess water) ([11]; low-dose, post-ischemic): reduced by half
Reduction of lesion volume / stroke size [12]: reduced by half

SMILES: Cc1ccc(Cl)c(Nc2ccccc2C(=O)O)c1Cl [meclofenamic acid]
Protection of retina against ischemic or excitotoxic insult [8]: protected

SMILES: Cc1cccc(Nc2ccccc2C(=O)O)c1C [mefenamic acid]
Neuroprotection (necrosis in cortex and subcortical structures) (transient focal ischemia): no neuroprotection
Protection of retina against ischemic or excitotoxic insult [8]: protected

SMILES: CCOc1cc(CC(=O)N[C@@H](CC(C)C)c2ccccc2N2CCCCC2)ccc1C(=O)O [repaglinide]
Block or opening of the NCCa-ATP channel (NCCa-ATP channel [4]): blocked

SMILES: Cc1c(C(=O)NN2CCCCC2)nn(-c2ccc(Cl)cc2Cl)c1-c1ccc(Cl)cc1 [rimonabant]
Reduction of infarct volume (permanent MCAO): ~40%
Electroencephalographic changes, hyperlocomotion and memory impairment induced by global ischemia (global cerebral ischemia): antagonize
